Data from ChEMBL document CHEMBL3875215, “Neuritogenic activity of bi-functional bis-tryptoline triazole” (Bioorg Med Chem, 2017).
Calls of active or inactive are those of the source. The rule behind the calls is not given here.

Tests used:
[1] = Cytotoxicity against mouse P19 derived neurons assessed as cell viability at 10 nM after 18 hrs by XTT assay relative to control; format: toxicity; details: read-out: Activity
[2] = target: T1, Amyloid-beta precursor protein (Homo sapiens, UniProt P05067); assay: Inhibition of human amyloid beta (1 to 42) aggregation at 100 uM incubated for 48 hrs under dark condition by ThT fluorescence assay relative to control
P19 [3] = assay: Neuritogenic activity in mouse P19 derived neurons assessed as increase in neurite number at 1 nM after 18 hrs by phase contrast microscopic method relative to control; format: functional
[4] = Cytotoxicity against mouse P19 derived neurons assessed as cell viability at 100 nM after 18 hrs by XTT assay relative to control; format: toxicity; details: read-out: Activity
[5] = Cytotoxicity against mouse P19 derived neurons assessed as cell viability at 10000 nM after 18 hrs by XTT assay relative to control; format: toxicity; details: read-out: Activity
P19 [6] = assay: Neuritogenic activity in mouse P19 derived neurons assessed as increase in neurite length at 1 nM after 18 hrs by phase contrast microscopic method relative to control; format: functional
[7] = Cytotoxicity against mouse P19 derived neurons assessed as cell viability at 1 nM after 18 hrs by XTT assay relative to control; format: toxicity; details: read-out: Activity
[8] = Antioxidant activity assessed as inhibition of DPPH radical at 100 uM incubated for 30 mins under dark condition relative to control; format: functional
[9] = Cytotoxicity against mouse P19 derived neurons assessed as cell viability at 1000 nM after 18 hrs by XTT assay relative to control; format: toxicity; details: read-out: Activity
Beta-secretase 1 [10] = target: T2, Beta-secretase 1 (Homo sapiens, UniProt P56817); assay: Inhibition of BACE1 (unknown origin) at 25 uM using beta-secretase substrate 4 after 30 mins by fluorescence spectrophotometric method relative to control
Beta-secretase 1 [11] = target: T2, Beta-secretase 1; assay: Inhibition of BACE1 (unknown origin) using beta-secretase substrate 4 after 30 mins by fluorescence spectrophotometric method
SH-SY5Y = assay: Neuroprotective activity against aggregated amyloid beta-induced toxicity in human SH-SY5Y cells assessed as increase in cell viability at 1 to 10 uM preincubated for 2 hrs followed by aggregated amyloid beta addition measured after 24 hrs by MTT assay; format: functional, cell-based
[12] = target: T1, Amyloid-beta precursor protein; assay: Inhibition of human amyloid beta (1 to 42) aggregation incubated for 48 hrs under dark condition by ThT fluorescence assay
[13] = target: T1, Amyloid-beta precursor protein; assay: Inhibition of amyloid beta (1 to 42) aggregation (unknown origin)

T1 sequence (P05067 whole entry): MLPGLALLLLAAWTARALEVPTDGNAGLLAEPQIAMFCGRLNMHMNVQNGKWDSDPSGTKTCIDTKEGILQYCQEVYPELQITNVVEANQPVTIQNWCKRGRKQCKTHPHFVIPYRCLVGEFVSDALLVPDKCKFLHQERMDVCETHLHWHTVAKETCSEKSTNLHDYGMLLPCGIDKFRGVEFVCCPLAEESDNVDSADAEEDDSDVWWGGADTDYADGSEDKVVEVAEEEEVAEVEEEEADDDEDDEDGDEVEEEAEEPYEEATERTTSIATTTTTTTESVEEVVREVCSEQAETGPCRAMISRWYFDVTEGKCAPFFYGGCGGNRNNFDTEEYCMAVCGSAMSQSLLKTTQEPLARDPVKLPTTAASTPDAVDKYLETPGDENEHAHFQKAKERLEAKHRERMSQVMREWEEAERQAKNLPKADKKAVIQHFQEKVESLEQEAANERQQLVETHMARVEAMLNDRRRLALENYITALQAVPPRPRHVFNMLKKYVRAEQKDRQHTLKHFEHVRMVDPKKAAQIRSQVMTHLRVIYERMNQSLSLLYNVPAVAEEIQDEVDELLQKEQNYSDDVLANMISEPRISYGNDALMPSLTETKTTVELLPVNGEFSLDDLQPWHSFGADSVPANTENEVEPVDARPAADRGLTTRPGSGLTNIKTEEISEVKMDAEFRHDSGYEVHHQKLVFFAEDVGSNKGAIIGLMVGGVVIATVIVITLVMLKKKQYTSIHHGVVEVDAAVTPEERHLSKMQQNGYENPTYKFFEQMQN
T2 sequence (P56817 whole entry): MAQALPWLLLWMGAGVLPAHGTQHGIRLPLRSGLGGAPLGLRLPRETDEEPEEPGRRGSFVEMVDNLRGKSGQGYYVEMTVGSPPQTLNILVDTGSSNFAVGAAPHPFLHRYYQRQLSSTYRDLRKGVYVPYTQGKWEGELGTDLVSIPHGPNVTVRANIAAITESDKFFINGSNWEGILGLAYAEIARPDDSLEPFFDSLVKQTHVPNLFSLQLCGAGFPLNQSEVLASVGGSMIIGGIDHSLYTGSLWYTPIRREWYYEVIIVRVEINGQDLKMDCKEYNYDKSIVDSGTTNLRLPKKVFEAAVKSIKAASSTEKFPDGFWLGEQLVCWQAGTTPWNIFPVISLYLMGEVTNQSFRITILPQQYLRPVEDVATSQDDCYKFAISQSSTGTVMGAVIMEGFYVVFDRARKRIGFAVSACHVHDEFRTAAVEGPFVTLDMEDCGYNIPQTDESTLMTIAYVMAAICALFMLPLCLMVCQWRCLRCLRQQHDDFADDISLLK

| SMILES | viability at 18 h, 0.01 µM [1] | inhibition [2] | Activity (P19 [3]) | viability at 18 h, 0.1 µM [4] | viability at 18 h, 10 µM [5] | Activity (P19 [6]) | viability at 18 h, 0.001 µM [7] | inhibition [8] | viability at 18 h, 1 µM [9] | inhibition (Beta-secretase 1 [10]) | IC50 (Beta-secretase 1 [11]) | Activity (SH-SY5Y) | IC50 [12] | IC50 [13] |
| --- | --- | --- | --- | --- | --- | --- | --- | --- | --- | --- | --- | --- | --- | --- |
| N[C@@H](Cc1c[nH]c2ccccc12)Cn1cc(CNC(=O)/C=C/c2ccc(O)c(O)c2)nn1 | 130% | 81.5% | 131.74% | 135% | 140% | 62.21% | 133% | 50.6% | 129% | 40% | – | – | – | – |
| OC[C@@H]1Cc2c([nH]c3ccccc23)CN1Cc1cn(C[C@@H]2Cc3c([nH]c4ccccc34)CN2)nn1 | 131% | 80.2% | 136.09% | 129% | 124% | 93.25% | 131% | 8.46% | 131% | 67.5% | 16.7 µM | Active | 66.4 µM | – |
| COC1=C2C[C@@H](C)C[C@H](OC)[C@H](O)[C@@H](C)/C=C(\C)[C@H](OC(N)=O)[C@@H](OC)/C=C\C=C(/C)C(=O)NC(=CC1=O)C2=O [GELDANAMYCIN] | – | – | 55.22% | – | – | 59.14% | – | – | – | – | – | – | – | – |
| N[C@@H](Cc1c[nH]c2ccccc12)Cn1cc(-c2ccc(Cl)c(Cl)c2)nn1 | 128% | 67.6% | 118.7% | 116% | 93.8% | 84.13% | 139% | 0% | 108% | 61.5% | – | – | – | – |
| O=C(/C=C/c1ccc(O)c(O)c1)NCc1cn(C[C@@H]2Cc3c([nH]c4ccccc34)CN2)nn1 | 139% | 84.1% | 123.04% | 125% | 140% | 57.54% | 130% | 92.3% | 120% | 21.7% | > 50 µM | – | – | – |
| O=c1c(O)c(-c2ccc(O)c(O)c2)oc2cc(O)cc(O)c12 [QUERCETIN] | – | – | 40.43% | – | – | 58.37% | – | – | – | – | – | – | – | 7.94 µM |
